The values that follow come from PubChem BioAssay AID1996.

By kinetic solubility is commonly meant the concentration staying in solution when a stock, usually in DMSO, is diluted into the medium.

≈ marks a conversion by molar mass, not a printed value. Residues, ends and D or L forms follow the SMILES beside them. *: point of attachment. Piperidide = C1CCN(*)CC1; PhAc = O=C(Cc1ccccc1)*

For this data set the following is noted: buffer; pH 7.4; 200.0 µM.
With `CC(NCC(=O)NCC(=O)Nc1ccc(F)cc1)c1cccc(C(F)(F)F)c1` (stereo not drawn), the solubility (kinetic) was greater than 59.6 µg/mL.

`COc1cccc(/C=C/C(=O)c2cccc([N+](=O)[O-])c2)c1`: the kinetic solubility stood at 2.4 µg/mL (≈ 8.47 µM).

In the case of `CC(C)NC(=O)COCc1cc(-c2ccc3c(c2)OCO3)on1`, the solubility (kinetic) is greater than 47.7 µg/mL.

In the case of `CCc1c(C)nc(N2CCN(c3ccc(F)cc3)CC2)[nH]c1=O`, the kinetic solubility came out at 2.1 µg/mL (≈ 6.64 µM).

For the compound `Cl.OC(CN1CCOCC1)Cn1c2c(c3ccccc31)CCCC2` (stereo not drawn), the kinetic solubility was determined as 51.3 µg/mL. This solubility kinetic is about 24-fold higher than that of the compound before.

For `CCOC(=O)N1CCN(C(=O)Nc2ccccc2)CC1`, the solubility (kinetic) is greater than 41.6 µg/mL.

In turn, `COc1ccc(NC(=O)Cn2c(C)csc2=O)c(OC)c1` displayed a kinetic solubility greater than 46.3 µg/mL.

The compound `CC(NC(=O)Cn1cc(C(F)(F)F)ccc1=O)c1ccc(F)cc1` (stereo not drawn) yielded a solubility (kinetic) of 23.5 µg/mL (≈ 68.7 µM).

Compound `Cc1ccc(CN(C)CC(=O)NC(C)c2ccccc2)cc1` (stereo not drawn) had a kinetic solubility greater than 44.5 µg/mL.

As to `CC(=O)Nc1cccc(-c2csc(Nc3ccc(Cl)cn3)n2)c1`, the solubility (kinetic) is 0.5 µg/mL (≈ 1.45 µM).

`CC(=O)c1c(-c2ccc(Cl)cc2)c2ccccc2[nH]c1=O`: the kinetic solubility turned out to be 0.9 µg/mL (≈ 3.02 µM).

As for `CC(C)CC(OC(=O)c1nsc(Cl)c1Cl)C(=O)NC1CCCC1` (stereo not drawn), the solubility (kinetic) was 22.4 µg/mL (≈ 59.1 µM).

On to `COc1ccc(CNC(=O)c2ccncc2)cc1`, for which the kinetic solubility was greater than 36.3 µg/mL.

In turn, `CCCN(CCC)C(=O)CC(c1ccccc1)c1ccco1` (stereo not drawn) showed a kinetic solubility greater than 44.9 µg/mL.

Compound `COC(=O)c1ccc(C(=O)Nc2ccc3c(c2)C(=O)NC3=O)cc1` registered a kinetic solubility of less than 0.3 µg/mL.

Take `CC(C)N(CC#CC(O)(c1ccccc1)c1ccccc1)C(C)C`: the kinetic solubility was greater than 48.2 µg/mL.

Regarding `Cc1ccc(C(=O)NC2CCC(C)CC2)s1` (stereo not drawn), the solubility (kinetic) came out at 10.2 µg/mL (≈ 43 µM).

Consider `Cc1ccc2c(c1)Cc1nc3ccccc3nc1-2`, for which the kinetic solubility worked out at 1.9 µg/mL (≈ 8.18 µM). Compared with the last compound, the solubility kinetic is about 5.4-fold lower.

Compound `COC(=O)c1sccc1-n1cccc1C(=O)C(=O)N1CCOCC1` had a kinetic solubility of 46.3 µg/mL (≈ 133 µM).

`CC(=O)NCCc1ccc(C(=O)Cn2cnc3ccccc3c2=O)cc1` showed a solubility (kinetic) greater than 52.4 µg/mL.

`COc1ccccc1C(=O)Nc1onc(C)c1C#N`: the kinetic solubility was greater than 38.6 µg/mL.

In turn, `Cl.Clc1ccc(-c2ccc(CNCC3CCCO3)o2)cc1` (stereo not drawn) returned a solubility (kinetic) greater than 49.2 µg/mL.

Take `Cc1ccccc1C(=O)NC(C(N)=O)P(=O)(OC(C)C)OC(C)C` (stereo not drawn): the solubility (kinetic) is greater than 53.5 µg/mL.

Turning to `CC1CC(C)CN(C(=O)COC(=O)c2ccc3ncsc3c2)C1` (stereo not drawn), the kinetic solubility stood at 44.9 µg/mL (≈ 135 µM).

`CC(NC(=O)CNC(=O)c1ccccc1Br)c1cccs1` (stereo not drawn) had a kinetic solubility greater than 55.1 µg/mL.

Compound `COCCCNC(=O)C(=O)NC1CCCCC1C` (stereo not drawn) yielded a solubility (kinetic) greater than 38.5 µg/mL.

`CC(C)(C)c1nc2ccc([N+](=O)[O-])cc2[nH]1` had a kinetic solubility greater than 32.9 µg/mL.

Take `O=C(CSc1ccccn1)Nc1cccc2ccccc12`: the solubility (kinetic) stood at 29.5 µg/mL (≈ 100 µM).

In turn, `CC(C)N=C(Nc1cccnc1)c1ccccc1` returned a solubility (kinetic) greater than 35.9 µg/mL.

As for `Cc1nn(CC(=O)NCc2cccnc2)c(C)c1[N+](=O)[O-]`, the kinetic solubility is greater than 43.4 µg/mL.

For `COc1cc(C(=O)NC23CC4CC(CC(C4)C2)C3)cc(OC)c1OC`, the solubility (kinetic) was less than 0.7 µg/mL.

As for `COc1ccc(OC)c(Nc2cc(C)c3ccccc3n2)c1`, the kinetic solubility came out at 1.4 µg/mL (≈ 4.76 µM).

In turn, `COc1ccc2oc(=N)c(C(=O)Nc3cccc(C)c3C)cc2c1` showed a solubility (kinetic) of less than 0.3 µg/mL.

Compound `COc1cccc(SCC2CSc3nc4ccccc4c(=O)n32)c1` (stereo not drawn) displayed a solubility (kinetic) greater than 53.5 µg/mL.

`O=C(Nc1ccccc1)O/N=C1/CCCc2occc21` showed a solubility (kinetic) of 16.6 µg/mL (≈ 61.4 µM).

In turn, `Nc1c(C(=O)O)cnn1-c1ccccc1` had a solubility (kinetic) greater than 30.5 µg/mL.

As for `Cc1ccc2c(c1)=C/C(=C\c1c(O)[nH]c(=O)[nH]c1=O)C(=O)N=2`, the kinetic solubility is less than 0.2 µg/mL.

As to `COc1ccc(N2CC(C(=O)N3CCN(C)CC3)CC2=O)cc1` (stereo not drawn), the solubility (kinetic) was determined as 43.8 µg/mL (≈ 138 µM).

For the compound `Cc1ccc(-c2csc(N=C(N)N)n2)cc1`, the kinetic solubility is 15.7 µg/mL (≈ 67.6 µM).

As to `CC(=O)c1csc(COc2ccc(Cl)cc2)n1`, the kinetic solubility came out at 3 µg/mL (≈ 11.2 µM). This solubility kinetic is about 5.2-fold lower than that of the compound before.

`CNC(=S)N1CCn2cccc2C1c1cccnc1` (stereo not drawn) returned a solubility (kinetic) of 40.8 µg/mL (≈ 150 µM). This solubility kinetic lies about 14-fold higher than the previous one.

`COc1ccc(C(=O)NCc2cc(C)nc3ccccc23)cc1OC`: the kinetic solubility amounted to 39.6 µg/mL (≈ 118 µM).

In turn, `CC1CC(=O)Nc2ccccc2N1S(=O)(=O)c1ccc(F)cc1F` (stereo not drawn) showed a kinetic solubility of 15.6 µg/mL (≈ 44.3 µM).

In the case of `O=C(O)C1CCCN1S(=O)(=O)c1ccc(Cl)cc1` (stereo not drawn), the kinetic solubility was greater than 43.5 µg/mL.

`Cc1nc(NC(=O)COC(=O)C2CC2C)c(Cl)cc1Cl` (stereo not drawn) came in with a solubility (kinetic) greater than 47.6 µg/mL.

In the case of `O=C(Nc1ccccc1C(=O)Nc1ccc(F)cc1)c1ccco1`, the solubility (kinetic) turned out to be 0.9 µg/mL (≈ 2.78 µM).

Compound `O=C(CNC(=O)Cc1ccccc1)NCC(=O)N1CCCCC1` (PhAc-Gly-Gly-Piperidide) gave a solubility (kinetic) greater than 47.6 µg/mL.

As for `COc1ccc2ccccc2c1CN1CCSCC1`, the solubility (kinetic) was 21.5 µg/mL (≈ 78.6 µM).

With `COCc1nnc(NC(=O)C2CC(=O)N(C3CCCCC3)C2)s1` (stereo not drawn), the solubility (kinetic) was greater than 50.8 µg/mL.

`COCCCn1c(-c2cccs2)nc2nc3ccccc3nc21` yielded a kinetic solubility of 12.9 µg/mL (≈ 39.8 µM).

`COc1ccc(CCNC(=O)c2cnc(Cl)c(Cl)c2)cc1` displayed a kinetic solubility of 2.4 µg/mL (≈ 7.38 µM). This solubility kinetic lies about 5.4-fold lower than the previous one.

The compound `CN(C(=O)Nc1cnc2ccccc2c1)c1ccccc1` had a solubility (kinetic) greater than 41.6 µg/mL.

As for `CCOCCCNCC(=O)Nc1cc(S(=O)(=O)N2CCOCC2)ccc1N1CCOCC1`, the solubility (kinetic) is greater than 70.6 µg/mL.
